For one test, the system named is MCF-7-AR cells. Put plainly: MCF-7-AR xenograft in ovariectomized, estradiol-supplemented mice. The class given is in vivo. Here is the method:
Once tumors reached 100-200 mm^3, the animals were randomized and treated with vehicle or 30 mg/kg per day of Formula VIII. Tumor volumes and body weights were measured thrice weekly. At the end of 5 weeks of treatment, the animals were sacrificed, tumors weighed and stored for RNA and protein isolation and histology. * significance at P<0.05.
All animal protocols were approved by The University of Tennessee Health Science Center (UTHSC) Institutional Animal Care and Use Research Committee. Xenograft experiments were performed as previously published (Narayanan et al. (2014) PLoS One 9, e103202). Briefly, 3 million MCF-7 cells were suspended in 0.05 ml MEM+10% FBS and 0.05 ml Matrigel/nude mouse and were injected subcutaneously. Once the tumor size reached 100-200 mm^3, the animals were randomized and treated orally with the indicated drugs formulated in DMSO:PEG-300 (15:85). HCI-7, HCI-9, and HCI-13 PDXs were gifts kindly donated by Dr. Alana Welm (Huntsman Cancer Institute, Salt Lake City, Utah). HCI PDX tumor fragments (1 mm^3) were surgically implanted under the mammary fat pad in female NOD SCID Gamma (NSG) mice. Tumor volume was measured twice weekly for MCF-7 xenograft and once or twice weekly for HCI PDXs. At the end of the study, animals were sacrificed and tumors were excised, weighed, and stored for various analyses.

Another test relates to HCI-13 tumor fragments. Briefly: HCI-13 ex vivo sponge culture, real time PCR. The class given is cell-based. To be noted: 3 days. Here is the method:
HCI-13 tumors grown in female mice were allowed to reach 500-1000 mm^3 before the animals were sacrificed and the tumors were excised to be used for sponge culture. Patient specimens frozen in liquid nitrogen in freezing medium were used for sponge culture. […] Tumors were sliced into small pieces (˜1 mm^3) and incubated on pre-soaked gelatin sponges (5 fragments/sponge) in 12 well plates containing 1.5 mL medium (MEM+10% FBS+2 mM L-glutamine+10 μg/mL insulin+10 μg/mL hydrocortisone+penicillin:streptomycin). The cultures were performed in triplicates for HCI-13 and singly for patient specimens. Pooled samples (n=5/sponge) from each sponge constituted one sample. Tissues were harvested after 3 days of treatment, RNA extracted, and expression of various genes measured. Although the same procedure was adopted for specimens obtained from breast cancer patients, the specimens were cultured singly (n=5/sponge=one sample) and not in triplicates as performed for HCI-13.

The test system of test [1] is ZR-75-1 breast cancer cells. Put plainly: ZR-75-1 cell proliferation (cell count). To be noted: 6 days, dose response. Type of test: cell-based. Here is the method:
Cells were plated at varying densities in growth medium in 96 well plates. Cells were treated as indicated in the figures and viability measured using sulforhodamine B (SRB) or the number of cells counted using Coulter counter.
Although a few previous reports have shown that MCF-7 cells express AR and respond to AR ligands (Buchanan et al. (2005) Cancer Res 65, 8487-8496), the MCF-7 cell line clone in the study lacks or minimally expresses AR, which is in concordance with other reports (De Amicis et al. (2010) Breast Cancer Res Treat 121, 1-11).

The test system of test [2] is MDA-MB-231 triple negative breast cancer cells. Briefly: SRB cell viability, MDA-MB-231 cells infected with AR adenovirus. Type of test: cell-based. Here is the method: The SRB assay was used to determine cell number during cytotoxocity experiments. The following protocol was used: • 1. Cells were detached with 0.25% trypsin. • 2. Experimental cultures were cultured in 96-well microtiter plates (200 μL growth medium per well; 1,000-200,000 cells per well). • 3. Cultures were fixed with 50 μL 50% TCA (4° C.). (see cell fixation protocol for details). • 4. Fixed cells were stained with 50 μL 0.4% (wt/vol) SRB in 1% acetic acid for 10 minutes. • 5. SRB was removed and the cultures were quickly* rinsed 5 times with 1% acetic acid to remove unbound dye.** • 6. Cultures were air-dried overnight until there was no visible moisture. • 7. The cellular protein-bound SRB was dissolved with 200 μL unbuffered Tris base (10 mM, pH 10.5) for 30 minutes on a rocking platform shaker. • 8. Absorbance was read at 540 nm. * quickly performing rinsing process was to prevent desorption of protein-bound SRB ** completely removed residual wash solution by sharply flicking plates over sink.
The following protocol was used for fixing cells: • a. 50 μL of 50% TCA (4° C.) was gently layered on the top of growth medium in each well to make a final TCA concentration of 10%. • b. Cultures were incubated at 4° C. for 1 hour. • c. Cultures were washed 5 times with tap water to remove TCA, growth medium, low-molecular-weight metabolites, and serum protein. • d. Plates were air-dried until there was no visible moisture.
Cells were treated in charcoal stripped FBS (FIGS. 4A, 4C, 4E, 4G, 4I, 4K, 4M and 4O) or full serum (FIGS. 4B, 4D, 4F, 4H, 4J, 4L, 4N and 4P) for 3 days, fixed and stained with […] (SRB) to measure cell viability. Anti-proliferative IC50 values were calculated in breast cancer cells and compared to transactivation values, i.e., EC50 (agonists) and IC50 (antagonists) values, generated in HEK-293 cells.

As to `C[C@](O)(COc1ccc(C#N)cc1)C(=O)Nc1ccc(C#N)c(Cl)c1` [Formula VIII, (S)—N-(3-chloro-4-cyanophenyl)-3-(4-cyanophenoxy)-2-hydroxy-2-methylpropanamide], the “growth inhibition of xenografts” value in the test on MCF-7-AR cells (30 mg/kg per day, 5 weeks) is recorded as “greater than 50%”. Also, the uterus weight entry in the test with MCF-7-AR cells (estrogen supplemented animals) is reported as “inhibited”.
Regarding `C[C@](O)(COc1ccc(C#N)cc1)C(=O)Nc1ccc(C#N)c(C(F)(F)F)c1` [Formula IX, (S)—N-(4-Cyano-3-(trifluoromethyl)phenyl)-3-(4-cyanophenoxy)-2-hydroxy-2-methylpropanamide], the “inhibition of ER-induced pS2 and PR gene expression” value in the test on HCI-13 tumor fragments (10 nM DHT, 1 μM Formula IX, 100 nM fulvestrant) is “effective”. In addition, in the test with HCI-13 tumor fragments, the “AR-target gene FKBP5 expression” value was “induced” and the MKI67 expression entry is listed as “inhibited”. In addition, in test [1], the proliferation entry is recorded as “significantly reduced dose dependently”. In addition, the “growth inhibitory effects in the presence of bicalutamide” value in test [2] (AR-positive cells, 10 μM bicalutamide) is reported as “weakened growth inhibitory effects”. Moreover, in test [2] (cells with AR, 3 days, SRB), the cell growth entry was “inhibited”.

For the origin of these results see US20220257552A1, “METHODS OF PRESCREENING AND TREATING BREAST CANCERS WITH SELECTIVE ANDROGEN RECEPTOR MODULATORS” (priority 2021, published 2022).
